{"source": "patent US20250066326A1", "about": "“BCL6 DEGRADERS AND USES THEREOF” (Dana-Farber Cancer Institute, Inc., priority 2021, published 2025)", "key": {"[1]": {"molecular_target": "T1, BCL6 (Homo sapiens, UniProt P41182)", "T1 construct": "endogenous in cells; host or cells: VAL cells", "experiment": "BCL6 degradation immunoblot in VAL cells", "format": "cell-based", "experimental": "(§1) Inclusive of Examples 8-14, VAL cells were seeded in 6-well plates at 1×10^6 cells/well and treated with indicated concentration and time point for the indicated compounds. Total protein was extracted from cells using the RIPA buffer (Abcam) supplemented with the Halt Protease Inhibitor Cocktail (Millipore-Sigma). Samples were loaded to Invitrogen Bolt Bis -Tris Plus gels (ThermoFisher Scientific) and transferred to Invitrolon PVDF membranes (ThermoFisher Scientific) using the Invitrogen Bolt wet-gel Transfer Device. Immunodetection was performed with standard techniques. The following primary and secondary antibodies were used: anti-BCL6, β-actin, H3 (Cell Signaling Technology), and IRDye secondary antibodies at the concentration recommended by the manufacturer.\nVAL cells were treated with compounds at serial concentrations of 0.1 μM, 1.0 μM, and 10 μM for 4 hours.\nVAL cells were treated with 1 at serial concentrations of 0.001 μM, 0.010 μM, 0.100 μM, 1.0 μM, and 10 μM for 4 hours.\nVAL cells were treated with 5 at serial concentrations of 0.001 μM, 0.010 μM, 0.100 μM, 1.0 μM, and 10 μM for 4 hours.\nVAL cells were treated with 1 at 0.1 μM for 1, 2, 4, 8, and 24 hours.\nVAL cells were treated with 6 at serial concentrations of 0.1 μM, 0.3 μM, 1.0 μM, 3.0 μM and 10 μM for 4 hours."}, "[2]": {"molecular_target": "T1, BCL6", "experiment": "BCL6 degradation immunoblot in DB cells", "format": "cell-based", "conditions": "tested at 0.1, 1.0, 10 μM for 4 hours, compared to BI-3812 and BI-3802", "experimental": "as §1\nDB cells were treated with compounds at serial concentrations of 0.1 μM, 1.0 μM, and 10 μM for 4 hours."}, "[3]": {"conditions": "tested at 0.001, 0.010, 0.100, 1.0, 10 μM for 4 hours"}, "[4]": {"conditions": "tested at 0.1, 1.0, 10 μM for 4 hours, compared to BI-3812 and BI-3802"}}}
{"smiles": "CNC(=O)COc1cc2cc(Nc3nc(N4CCC(C(=O)NCCCCCCCCNc5cccc6c5C(=O)N(C5CCC(=O)NC5=O)C6=O)CC4)ncc3Cl)cc(OC)c2n(C)c1=O", "note": "(centres unmarked) [compound 1, 1-(5-chloro-4-((8-methoxy-1-methyl-3-(2-(methylamino)-2-oxoethoxy)-2-oxo-1,2-dihydroquinolin-6-yl)amino)pyrimidin-2-yl)-N-(8-((2-(2,6-dioxopiperidin-3-yl)-1,3-dioxoisoindolin-4-yl)amino)octyl)piperidine-4-carboxamide]", "values": [{"measurement": "time in which BCL6 is degraded (immunoblot)", "setting": "[1]; 0.1 μM (100 nM), time points 1, 2, 4, 8, 24 hours", "result": "less than 1 hour"}, {"measurement": "concentration at which compound degrades BCL6 (immunoblot)", "setting": "[1]; [3]", "result": 1.0, "unit": "nM"}, {"measurement": "concentration at which compound degrades BCL6 (immunoblot)", "setting": "[1]; [4]", "result": 100, "unit": "nM"}]}
{"smiles": "CNC(=O)COc1cc2cc(Nc3nc(N4CCC(C(=O)NCCCCNc5cccc6c5C(=O)N(C5CCC(=O)NC5=O)C6=O)CC4)ncc3Cl)cc(OC)c2n(C)c1=O", "note": "(centres unmarked) [compound 3, 1-(5-chloro-4-((8-methoxy-1-methyl-3-(2-(methylamino)-2-oxoethoxy)-2-oxo-1,2-dihydroquinolin-6-yl)amino)pyrimidin-2-v1)-N-(4-((2-(2,6-dioxopiperidin-3-yl)-1,3-dioxoisoindolin-4-yl)amino)butyl)piperidine-4-carboxamide]", "values": [{"measurement": "concentration at which compound degrades BCL6 (immunoblot)", "setting": "[1]; [4]", "result": 100, "unit": "nM"}, {"measurement": "concentration at which compound degrades BCL6 (immunoblot)", "setting": "[2]", "result": 100, "unit": "nM"}]}
{"smiles": "CNC(=O)COc1cc2cc(Nc3nc(N4CCC(C(=O)NCCOCCNc5cccc6c5C(=O)N(C5CCC(=O)NC5=O)C6=O)CC4)ncc3Cl)cc(OC)c2n(C)c1=O", "note": "(centres unmarked) [compound 4, 1-(5-chloro-4-((8-methoxy-1-methyl-3-(2-(methylamino)-2-oxoethoxy)-2-oxo-1,2-dihydroquinolin-6-yl)amino)pyrimidin-2-vl)-N-(2-(2-((2-(2,6-dioxopiperidin-3-yl)-1,3-dioxoisoindolin-4-yl)amino)ethoxy)ethyl)piperidine-4-carboxamide]", "values": [{"measurement": "concentration at which compound degrades BCL6 (immunoblot)", "setting": "[1]; [4]", "result": 100, "unit": "nM"}, {"measurement": "concentration at which compound degrades BCL6 (immunoblot)", "setting": "[2]", "result": 1000, "unit": "nM"}]}
{"smiles": "CNC(=O)COc1cc2cc(Nc3nc(N4CCC(NC(=O)CCCCCCCCCCCNc5cccc6c5C(=O)N(C5CCC(=O)NC5=O)C6=O)CC4)ncc3Cl)cc(OC)c2n(C)c1=O", "note": "(centres unmarked) [compound 5, N-(1-(5-chloro-4-((8-methoxy-1-methyl-3-(2-(methylamino)-2-oxoethoxy)-2-oxo-1,2-dihydroquinolin-6-yl)amino)pyrimidin-2-yl)piperidin-4-yl)-12-((2-(2,6-dioxopiperidin-3-yl)-1,3-dioxoisoindolin-4-yl)amino)dodecanamide]", "values": [{"measurement": "concentration at which compound degrades BCL6 (immunoblot)", "setting": "[1]; [3]", "result": 10, "unit": "nM"}, {"measurement": "concentration at which compound degrades BCL6 (immunoblot)", "setting": "[1]; [4]", "result": 100, "unit": "nM"}, {"measurement": "concentration at which compound degrades BCL6 (immunoblot)", "setting": "[2]", "result": 1000, "unit": "nM"}]}
{"smiles": "CNC(=O)COc1cc2cc(Nc3nc(N4CCC(C(=O)NCCCCCCNC(=O)COc5cccc6c5C(=O)N(C5CCC(=O)NC5=O)C6=O)CC4)ncc3Cl)cc(OC)c2n(C)c1=O", "note": "(centres unmarked) [compound 6, 1-(5-chloro-4-((8-methoxy-1-methyl-3-(2-(methylamino)-2-oxoethoxy)-2-oxo-1,2-dihydroquinolin-6-yl)amino)pyrimidin-2-vl)-N-(6-(2-((2-(2,6-dioxopiperidin-3-yl)-1,3-dioxoisoindolin-4-yl)oxy)acetamido)hexyl)piperidine-4-carboxamide]", "values": [{"measurement": "concentration at which compound degrades BCL6 (immunoblot)", "setting": "[1]; tested at 0.1, 0.3, 1.0, 3.0, 10 μM for 4 hours", "result": 300, "unit": "nM"}]}
